Results as given in paper PMC10349806 (Nature Communications, 2023).
“And” between values parts separate entries of the source, which are not always exact repeats. Equal entries are not always repeated.

Target: PfCRT^Dd2 (Plasmodium falciparum, UniProt Q9N623, A220S/I356T/K76T/M74I/N326S/N75E/Q271E/R371I)
Experiment: Drug uptake assay, X. laevis oocytes expressing PfCRT^Dd2
Type: cell-based
Details: for v-1 pH 4.5 / v-1 pH 5.0 / v-1 pH 5.5 / v-1 pH 6.0: Lineweaver-Burk
Protocol: Oocytes were obtained as described previously. Briefly, adult (>2 years old) female X. laevis frogs (NASCO) were anesthetized in a cooled solution of ethyl 3-amino benzoate methanesulfonate (0.1%, w/v), followed by a surgical removal of parts of the ovary. The ovary lobes were carefully dissected and small pieces of oocytes were incubated in Ca^2+-free ND96 buffer (96 mM NaCl, 2 mM KCl, 1 mM MgCl2 buffered with 5 mM HEPES/NaOH, pH 7.5) supplemented with collagenase D (0.1%, w/v; Roche), BSA (0.5%, w/v), and 9 mm Na2HPO4 at 18 °C for 14-16 h while gentle shaking. After incubation, the oocytes were carefully washed several times with ND96 buffer (96 mM NaCl, 2 mM KCl, 1.8 mM CaCl2, 1 mM MgCl2 buffered with 5 mM HEPES/NaOH, pH 7.5) supplemented with 100 mg l^−1 gentamycin). Defolliculated and healthy-looking stage V-VI oocytes were manually selected for RNA microinjection. The RNA was generated as following: The codon-optimized sequences of PfCRT variants were cloned into the pSP64T expression vector. After vector linearization using the restriction endonucleases BamHI or SalI (New England Biolabs), transcription was performed using the in vitro SP6 mMessage mMachine Kit (Ambion)[34]. The obtained RNA was kept at −80 °C and diluted with nuclease-free water to a concentration of 0.6 μg μl^−1. Precision-bore glass capillary tubes (3.5-inch glass capillaries; Drummond Scientific Co.) were pulled on a vertical puller (P-87 Flaming/Brown micropipette puller, Sutter Instrument Co.), graduated, and placed on a microinjector (Nanoject II Auto-Nanoliter Injector, Drummond Scientific Co.). 50 nl of nuclease-free water alone (control oocytes) or 50 nl of 0.6 μg μl^−1 RNA were injected under stereomicroscopic control. Injected oocytes were incubated for 46–72 h at 18 °C with twice-daily buffer changes before usage in experiments.
Drug uptake assays were performed as described previously[21],[22],[24],[34]. […] The direction of radio-labeled drug transport is here from the mostly acidic extracellular solution (pH 4.5 or 6.0, as indicated) into the oocyte cytosol (pH ∼ 7.2), which corresponds to the efflux of drug from the acidic digestive vacuole (pH 5.2) into the parasite cytoplasm (pH 7.2). The topology of PfCRT in the oolemma is such that both the N- and C-terminus face the extracellular milieu[3],[22]. In the parasite, the N- and C-terminus face the lumen of the digestive vacuole. […] For determination of the amount of drug uptake for each oocyte, the reaction medium was removed and the oocytes were washed three times with 2 ml of ice-cold ND96 buffer. Each oocyte was individually transferred to a scintillation vial containing 5% sodium dodecyl sulfate (200 μl) for lysis. […] Oocytes that were injected with water instead of RNA were analyzed in parallel, representing the uptake of a drug by diffusion and/or endogenous permeation pathways. The resulting value represents the “background“ level of drug accumulation in oocytes (in-depth discussion in[22]). The specific PfCRT-mediated uptake was determined by subtracting the corresponding background value measured in water-injected oocytes from that of PfCRT-expressing oocytes. In all cases, at least three separate experiments were performed on oocytes from different frogs (biological replicate), and for each condition in an experiment, measurements were made from 10 oocytes per treatment. For pH 5.5, 6.0, and 6.5, ND96 was buffered with 5 mM MES/Tris base. For pH 4.5, 5 mM Homo-Pipes was used as a buffer and 5 mM HEPES for uptake at pH 7.0.

PfCRT^Dd2, sequence (Q9N623 whole entry A220S/I356T/K76T/M74I/N326S/N75E/Q271E/R371I): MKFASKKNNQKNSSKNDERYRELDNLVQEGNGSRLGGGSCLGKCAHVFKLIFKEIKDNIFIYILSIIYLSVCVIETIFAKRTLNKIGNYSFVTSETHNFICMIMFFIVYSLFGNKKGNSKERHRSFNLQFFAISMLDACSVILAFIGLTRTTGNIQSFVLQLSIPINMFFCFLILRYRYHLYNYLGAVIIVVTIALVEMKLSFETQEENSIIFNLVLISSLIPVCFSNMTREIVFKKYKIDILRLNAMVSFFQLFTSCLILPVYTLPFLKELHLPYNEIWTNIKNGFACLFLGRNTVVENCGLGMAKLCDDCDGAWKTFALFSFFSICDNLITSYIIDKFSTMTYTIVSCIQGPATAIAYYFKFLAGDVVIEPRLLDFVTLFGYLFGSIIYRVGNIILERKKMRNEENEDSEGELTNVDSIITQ

SMILES: CCN(CC)CCCC(C)Nc1ccnc2cc(Cl)ccc12 (stereo not shown) [CQ, chloroquine]
- PfCRTDd2 transport activity 10 µM CQ pH 4.5 (10 µM CQ, pH 4.5, individual replicates (Fig 4a)): 0.37 pmol oocyte-1 h-1 and 0.31 pmol oocyte-1 h-1 and 0.76 pmol oocyte-1 h-1 and 0.49 pmol oocyte-1 h-1
- PfCRTDd2 transport activity (10 µM CQ, pH 5.0, 60 min): 0.54 pmol oocyte-1 h-1
- PfCRTDd2 transport activity 10 µM CQ pH 5.0 (10 µM CQ, pH 5.0, individual replicates (Fig 4a)): 0.58 pmol oocyte-1 h-1 and 0.59 pmol oocyte-1 h-1 and 0.45 pmol oocyte-1 h-1
- PfCRTDd2 transport activity (10 µM CQ, pH 5.5, 60 min): 0.69 pmol oocyte-1 h-1
- PfCRTDd2 transport activity 10 µM CQ pH 5.5 (10 µM CQ, pH 5.5, individual replicates (Fig 4a)): 0.67 pmol oocyte-1 h-1 and 0.82 pmol oocyte-1 h-1 and 0.59 pmol oocyte-1 h-1 and 0.68 pmol oocyte-1 h-1
- PfCRTDd2 transport activity (10 µM CQ, pH 6.0, 60 min): 0.94 pmol oocyte-1 h-1 and 0.95 pmol oocyte-1 h-1 and 0.80 pmol oocyte-1 h-1 and 1.08 pmol oocyte-1 h-1
- PfCRTDd2 transport activity 10 µM CQ pH 6.0 (10 µM CQ, pH 6.0, individual replicates (Fig 4a)): 0.95 pmol oocyte-1 h-1 and 0.80 pmol oocyte-1 h-1 and 1.08 pmol oocyte-1 h-1
- PfCRTDd2-mediated CQ transport activity (10 µM CQ, time 0 min): 0.00 pmol oocyte-1
- PfCRTDd2-mediated CQ transport activity (10 µM CQ, time 30 min): 0.73 pmol oocyte-1
- PfCRTDd2-mediated CQ transport activity (10 µM CQ, time 60 min): 1.10 pmol oocyte-1
- PfCRTDd2-mediated CQ transport activity (10 µM CQ, time 90 min): 2.55 pmol oocyte-1
- v-1 pH 4.5 (10 µM CQ): 2.08 (pmol oocyte-1 h-1)-1
- v-1 pH 5.0 (10 µM CQ): 1.85 (pmol oocyte-1 h-1)-1
- v-1 pH 5.5 (10 µM CQ): 1.45 (pmol oocyte-1 h-1)-1
- v-1 pH 6.0 (10 µM CQ): 1.06 (pmol oocyte-1 h-1)-1
- PfCRTDd2 transport activity 50 µM CQ pH 4.5 (50 µM CQ, pH 4.5, individual replicates (Fig 4a)): 0.97 pmol oocyte-1 h-1 and 2.03 pmol oocyte-1 h-1 and 1.14 pmol oocyte-1 h-1 and 1.28 pmol oocyte-1 h-1
- PfCRTDd2 transport activity 50 µM CQ pH 5.0 (50 µM CQ, pH 5.0, individual replicates (Fig 4a)): 1.93 pmol oocyte-1 h-1 and 2.00 pmol oocyte-1 h-1 and 3.15 pmol oocyte-1 h-1 and 1.59 pmol oocyte-1 h-1 and 2.59 pmol oocyte-1 h-1 and 2.54 pmol oocyte-1 h-1 and 1.86 pmol oocyte-1 h-1 and 2.77 pmol oocyte-1 h-1 and 2.58 pmol oocyte-1 h-1 and 3.10 pmol oocyte-1 h-1
- PfCRTDd2 transport activity 50 µM CQ pH 5.5 (50 µM CQ, pH 5.5, individual replicates (Fig 4a)): 2.14 pmol oocyte-1 h-1 and 3.86 pmol oocyte-1 h-1 and 4.54 pmol oocyte-1 h-1 and 3.39 pmol oocyte-1 h-1 and 3.66 pmol oocyte-1 h-1 and 1.74 pmol oocyte-1 h-1 and 6.45 pmol oocyte-1 h-1 and 4.72 pmol oocyte-1 h-1 and 2.44 pmol oocyte-1 h-1 and 3.17 pmol oocyte-1 h-1 and 4.57 pmol oocyte-1 h-1 and 4.41 pmol oocyte-1 h-1 and 3.78 pmol oocyte-1 h-1
- PfCRTDd2 transport activity 50 µM CQ pH 6.0 (50 µM CQ, pH 6.0, individual replicates (Fig 4a)): 4.84 pmol oocyte-1 h-1 and 4.32 pmol oocyte-1 h-1 and 4.63 pmol oocyte-1 h-1
- PfCRTDd2-mediated CQ transport activity (50 µM CQ, time 0 min): 0.00 pmol oocyte-1
- PfCRTDd2-mediated CQ transport activity (50 µM CQ, time 30 min): 3.63 pmol oocyte-1
- PfCRTDd2-mediated CQ transport activity (50 µM CQ, time 60 min): 5.55 pmol oocyte-1
- PfCRTDd2-mediated CQ transport activity (50 µM CQ, time 90 min): 7.51 pmol oocyte-1
- v-1 pH 4.5 (50 µM CQ): 0.52 (pmol oocyte-1 h-1)-1
- v-1 pH 5.0 (50 µM CQ): 0.43 (pmol oocyte-1 h-1)-1
- v-1 pH 5.5 (50 µM CQ): 0.27 (pmol oocyte-1 h-1)-1
- v-1 pH 6.0 (50 µM CQ): 0.22 (pmol oocyte-1 h-1)-1
- PfCRTDd2 transport activity (100 µM CQ, pH 4.5, 60 min): 5.17 pmol oocyte-1 h-1 and 4.60 pmol oocyte-1 h-1 and 5.99 pmol oocyte-1 h-1 and 5.32 pmol oocyte-1 h-1 and 4.77 pmol oocyte-1 h-1
- PfCRTDd2 transport activity 100 µM CQ pH 4.5 (100 µM CQ, pH 4.5, individual replicates (Fig 4a)): 4.60 pmol oocyte-1 h-1 and 5.99 pmol oocyte-1 h-1 and 5.32 pmol oocyte-1 h-1 and 4.77 pmol oocyte-1 h-1
- PfCRTDd2 transport activity (100 µM CQ, pH 5.0, 60 min): 5.48 pmol oocyte-1 h-1
- PfCRTDd2 transport activity 100 µM CQ pH 5.0 (100 µM CQ, pH 5.0, individual replicates (Fig 4a)): 4.33 pmol oocyte-1 h-1 and 6.22 pmol oocyte-1 h-1 and 5.90 pmol oocyte-1 h-1
- PfCRTDd2 transport activity (100 µM CQ, pH 5.5, 60 min): 7.61 pmol oocyte-1 h-1
- PfCRTDd2 transport activity 100 µM CQ pH 5.5 (100 µM CQ, pH 5.5, individual replicates (Fig 4a)): 6.37 pmol oocyte-1 h-1 and 9.40 pmol oocyte-1 h-1 and 7.07 pmol oocyte-1 h-1
- PfCRTDd2 transport activity (100 µM CQ, pH 6.0, 60 min): 9.42 pmol oocyte-1 h-1 and 10.41 pmol oocyte-1 h-1 and 9.48 pmol oocyte-1 h-1 and 8.36 pmol oocyte-1 h-1
- PfCRTDd2 transport activity 100 µM CQ pH 6.0 (100 µM CQ, pH 6.0, individual replicates (Fig 4a)): 10.41 pmol oocyte-1 h-1 and 9.48 pmol oocyte-1 h-1 and 8.36 pmol oocyte-1 h-1
- PfCRTDd2-mediated CQ transport activity (100 µM CQ, time 0 min): 0.00 pmol oocyte-1
- PfCRTDd2-mediated CQ transport activity (100 µM CQ, time 30 min): 5.73 pmol oocyte-1
- PfCRTDd2-mediated CQ transport activity (100 µM CQ, time 60 min): 8.29 pmol oocyte-1
- PfCRTDd2-mediated CQ transport activity (100 µM CQ, time 90 min): 9.71 pmol oocyte-1
- v-1 pH 4.5 (100 µM CQ): 0.19 (pmol oocyte-1 h-1)-1
- v-1 pH 5.0 (100 µM CQ): 0.18 (pmol oocyte-1 h-1)-1
- v-1 pH 5.5 (100 µM CQ): 0.13 (pmol oocyte-1 h-1)-1
- v-1 pH 6.0 (100 µM CQ): 0.11 (pmol oocyte-1 h-1)-1
- PfCRTDd2 transport activity (200 µM CQ, pH 4.5, 60 min): 7.21 pmol oocyte-1 h-1 and 7.32 pmol oocyte-1 h-1 and 8.24 pmol oocyte-1 h-1 and 6.30 pmol oocyte-1 h-1 and 7.78 pmol oocyte-1 h-1 and 6.41 pmol oocyte-1 h-1
- PfCRTDd2 transport activity 200 µM CQ pH 4.5 (200 µM CQ, pH 4.5, individual replicates (Fig 4a)): 7.32 pmol oocyte-1 h-1 and 8.24 pmol oocyte-1 h-1 and 6.30 pmol oocyte-1 h-1 and 7.78 pmol oocyte-1 h-1 and 6.41 pmol oocyte-1 h-1
- PfCRTDd2 transport activity (200 µM CQ, pH 5.0, 60 min): 9.98 pmol oocyte-1 h-1
- PfCRTDd2 transport activity 200 µM CQ pH 5.0 (200 µM CQ, pH 5.0, individual replicates (Fig 4a)): 9.29 pmol oocyte-1 h-1 and 10.18 pmol oocyte-1 h-1 and 10.48 pmol oocyte-1 h-1
- PfCRTDd2 transport activity (200 µM CQ, pH 5.5, 60 min): 10.75 pmol oocyte-1 h-1
- PfCRTDd2 transport activity 200 µM CQ pH 5.5 (200 µM CQ, pH 5.5, individual replicates (Fig 4a)): 11.07 pmol oocyte-1 h-1 and 10.25 pmol oocyte-1 h-1 and 11.13 pmol oocyte-1 h-1 and 10.55 pmol oocyte-1 h-1
- PfCRTDd2 transport activity (200 µM CQ, pH 6.0, 60 min): 13.53 pmol oocyte-1 h-1 and 12.77 pmol oocyte-1 h-1 and 14.22 pmol oocyte-1 h-1 and 13.59 pmol oocyte-1 h-1
- PfCRTDd2 transport activity 200 µM CQ pH 6.0 (200 µM CQ, pH 6.0, individual replicates (Fig 4a)): 12.77 pmol oocyte-1 h-1 and 14.22 pmol oocyte-1 h-1 and 13.59 pmol oocyte-1 h-1
- PfCRTDd2-mediated CQ transport activity (200 µM CQ, time 0 min): 0.00 pmol oocyte-1
- PfCRTDd2-mediated CQ transport activity (200 µM CQ, time 30 min): 9.39 pmol oocyte-1
- PfCRTDd2-mediated CQ transport activity (200 µM CQ, time 60 min): 15.25 pmol oocyte-1
- PfCRTDd2-mediated CQ transport activity (200 µM CQ, time 90 min): 18.81 pmol oocyte-1
- v-1 pH 4.5 (200 µM CQ): 0.14 (pmol oocyte-1 h-1)-1
- v-1 pH 5.0 (200 µM CQ): 0.10 (pmol oocyte-1 h-1)-1
- v-1 pH 5.5 (200 µM CQ): 0.09 (pmol oocyte-1 h-1)-1
- v-1 pH 6.0 (200 µM CQ): 0.0739 (pmol oocyte-1 h-1)-1
- PfCRTDd2 transport activity (300 µM CQ, pH 4.5, 60 min): 8.79 pmol oocyte-1 h-1 and 8.53 pmol oocyte-1 h-1 and 10.77 pmol oocyte-1 h-1 and 6.50 pmol oocyte-1 h-1 and 9.34 pmol oocyte-1 h-1
- PfCRTDd2 transport activity 300 µM CQ pH 4.5 (300 µM CQ, pH 4.5, individual replicates (Fig 4a)): 8.53 pmol oocyte-1 h-1 and 10.77 pmol oocyte-1 h-1 and 6.50 pmol oocyte-1 h-1 and 9.34 pmol oocyte-1 h-1
- PfCRTDd2 transport activity (300 µM CQ, pH 5.0, 60 min): 10.68 pmol oocyte-1 h-1
- PfCRTDd2 transport activity 300 µM CQ pH 5.0 (300 µM CQ, pH 5.0, individual replicates (Fig 4a)): 10.67 pmol oocyte-1 h-1 and 9.04 pmol oocyte-1 h-1 and 12.33 pmol oocyte-1 h-1
- PfCRTDd2 transport activity (300 µM CQ, pH 5.5, 60 min): 12.81 pmol oocyte-1 h-1
- PfCRTDd2 transport activity 300 µM CQ pH 5.5 (300 µM CQ, pH 5.5, individual replicates (Fig 4a)): 13.73 pmol oocyte-1 h-1 and 12.01 pmol oocyte-1 h-1 and 12.69 pmol oocyte-1 h-1
- PfCRTDd2 transport activity (300 µM CQ, pH 6.0, 60 min): 15.42 pmol oocyte-1 h-1 and 15.31 pmol oocyte-1 h-1 and 16.86 pmol oocyte-1 h-1 and 14.10 pmol oocyte-1 h-1
- PfCRTDd2 transport activity 300 µM CQ pH 6.0 (300 µM CQ, pH 6.0, individual replicates (Fig 4a)): 15.31 pmol oocyte-1 h-1 and 16.86 pmol oocyte-1 h-1 and 14.10 pmol oocyte-1 h-1
- PfCRTDd2-mediated CQ transport activity (300 µM CQ, time 0 min): 0.00 pmol oocyte-1
- PfCRTDd2-mediated CQ transport activity (300 µM CQ, time 30 min): 9.78 pmol oocyte-1
- PfCRTDd2-mediated CQ transport activity (300 µM CQ, time 60 min): 14.63 pmol oocyte-1
